Laboratory results taken from paper PMC10913730, “Antimicrobial activity of a natural compound and analogs against multi-drug-resistant Gram-positive pathogens” (Microbiology Spectrum, 2024).
≈ marks a conversion by molar mass, not a printed value. Read-outs that look alike come from different tables or passages of the source.

What was measured:
[1] = pH and Ka of 10-g/L aqueous solutions (pH meter); type: physicochemical; details: 10-g/L solution in distilled, deionized water; for pH of solution: room temperature
MRSA isolates = experiment: MIC/MBC, CLSI broth microdilution, MRSA isolates; type: cell-based, Staphylococcus aureus; details: for change of MIC and MBC with the reduction in pH: six MRSA isolates, pH lowered to 5.5
[2] = tested on: Staphylococcus epidermidis isolates; experiment: microbe, parasite or virus in culture; type: cell-based
Enterococcus faecalis = experiment: MIC/MBC against Enterococcus faecalis; type: cell-based
Streptococcus pyogenes = experiment: MIC/MBC against Streptococcus pyogenes; type: cell-based; details: for MBC: Streptococcus pyogenes
Pseudomonas aeruginosa = experiment: MIC against Pseudomonas aeruginosa; type: cell-based
[3] = tested on: MRSA isolates SA LL 06 and TCH 1516; experiment: Kill kinetics against stationary-phase MRSA; type: cell-based, Staphylococcus aureus; details: shaking, 37°C
Experimental: MRSA isolates, TCH 1516 and SA LL 06, were grown to the stationary phase, and the rate of bacterial killing was determined. Frozen bacterial stocks were streaked onto TSA plates and grown overnight. A single colony was selected and incubated overnight in LB broth at 37°C with constant orbital shaking at 200 RPM. Next, bacterial suspension was washed twice with 150 mM sodium chloride and resuspended in MH broth at a concentration of 1.2E9 CFU/mL. […] Glass tubes containing 5 mL of bacteria and drug solutions were grown in a shaking incubator at 37°C. At 0, 4, 8, and 24 hours, bacterial suspensions were collected, serially diluted, and plated onto a blood agar plate. Bacteria were allowed to grow for 24 hours and were enumerated to yield colony-forming units per milliliter.

[4] = tested on: MRSA isolate SAD05 biofilms; type: cell-based, Staphylococcus aureus; details: 72-hour biofilms of SAD05, MBEC assay
MRSA isolate TCH 1516 [5] = experiment: Single-step resistance development; type: cell-based, Staphylococcus aureus; details: TCH 1516 stationary phase; C59 as low as 2× MIC, vancomycin up to 8× MIC
Experimental: For the single-step study, bacteria were grown to the stationary phase as described above. Bacteria at a concentration of 1E9 CFU were then plated onto C59 and vancomycin-loaded plates containing 1×, 2×, 4×, and 8× MIC concentrations of the therapeutic agents with 1% DMSO. Bacteria were incubated at 37°C for 48 hours, and colony counts were enumerated to calculate the frequency of resistance development, as described in the literature ([45], [46]).

MRSA isolate TCH 1516 [6] = experiment: Resistance acquisition during serial passage; type: cell-based, Staphylococcus aureus; details: serial passage, after 21 days
Experimental: MRSA isolate TCH 1516 was grown to the stationary phase (OD650 = 1.0) in 10 mL of MH broth. […] The second highest drug concentration resulting in bacterial growth (OD650 >1.0) was used as the inoculum after a 1:1,000 dilution for subsequent steps, every 24 hours, for up to 21 days.

[7] = tested on: human dermal fibroblast (HDF) cells; experiment: alamarBlue cell viability assay, HDF; details: HDFs, 24-hour incubation, non-linear regression
[8] = tested on: human bronchial epithelial (16HBE) cells; experiment: alamarBlue cell viability assay, 16HBE; details: 24-hour incubation, non-linear regression
[9] = tested on: erythrocytes (sheep blood); experiment: Hemolytic activity against sheep erythrocytes
[10] = Aqueous solubility of compounds reconstituted at 10 mg/mL in water; details: 10 mg/mL in distilled deionized water
[11] = Staphylococcus aureus, MRSA, pH 5.5, MRSA 0606, pH 5.5
[12] = Staphylococcus aureus, MRSA, pH 5.5, MRSA 0608, pH 5.5
[13] = Staphylococcus aureus, MRSA, pH 5.5, MRSA 0634, pH 5.5
[14] = Staphylococcus aureus, MRSA, pH 5.5, MRSA 0641, pH 5.5
[15] = Staphylococcus aureus, MRSA, pH 5.5, MRSA 0646, pH 5.5
[16] = Staphylococcus aureus, MRSA, pH 5.5, TCH 1516, pH 5.5
[17] = Staphylococcus aureus, MRSA, pH 6.5, MRSA 0606, pH 6.5
[18] = Staphylococcus aureus, MRSA, pH 6.5, MRSA 0608, pH 6.5
[19] = Staphylococcus aureus, MRSA, pH 6.5, MRSA 0634, pH 6.5
[20] = Staphylococcus aureus, MRSA, pH 6.5, MRSA 0641, pH 6.5
[21] = Staphylococcus aureus, MRSA, pH 6.5, MRSA 0646, pH 6.5
[22] = Staphylococcus aureus, MRSA, pH 6.5, TCH 1516, pH 6.5
[23] = Staphylococcus aureus, MRSA, pH 7.4, MRSA 0606, pH 7.4
[24] = Staphylococcus aureus, MRSA, pH 7.4, MRSA 0608, pH 7.4
[25] = Staphylococcus aureus, MRSA, pH 7.4, MRSA 0634, pH 7.4
[26] = Staphylococcus aureus, MRSA, pH 7.4, MRSA 0641, pH 7.4
[27] = Staphylococcus aureus, MRSA, pH 7.4, MRSA 0646, pH 7.4
[28] = Staphylococcus aureus, MRSA, pH 7.4, TCH 1516, pH 7.4
[29] = 21 Staphylococcus epidermidis isolates
[30] = ATCC49532, Enterococcus faecalis (ATCC 49532)
[31] = ATCC51575, Enterococcus faecalis (ATCC 51575)
[32] = Streptococcus pyogenes (NR1575)

Structure (SMILES): Oc1c(Cl)cc(Cl)cc1-c1cc(Cl)cc(Cl)c1O [C59, 3,3′,5,5′-tetrachloro-[1,1′-biphenyl]−2,2′-diol]
- acid dissociation constant (Ka) [1]: 6.18 × 10^−19
- pH of solution [1]: 9.86
- MIC90 (MRSA isolates; Staphylococcus aureus, MRSA, 39 evaluated MRSA isolates, CLSI broth microdilution): 2 µg/mL (≈ 6.17 µM)
- MIC (MRSA isolates; Staphylococcus aureus, MRSA, SA LL 06, as given for the kill kinetic assay): 2 µg/mL (≈ 6.17 µM)
- MIC (MRSA isolates; Staphylococcus aureus, MRSA, TCH 1516, as given for the kill kinetic assay): 2 µg/mL (≈ 6.17 µM)
- MBC (MRSA isolates; [11]): 0.5 µg/mL (≈ 1.54 µM)
- MIC (MRSA isolates; [11]): 0.5 µg/mL (≈ 1.54 µM)
- MBC (MRSA isolates; [12]): 0.5 µg/mL (≈ 1.54 µM)
- MIC (MRSA isolates; [12]): 0.5 µg/mL (≈ 1.54 µM)
- MBC (MRSA isolates; [13]): 0.5 µg/mL (≈ 1.54 µM)
- MIC (MRSA isolates; [13]): 0.5 µg/mL (≈ 1.54 µM)
- MBC (MRSA isolates; [14]): 0.5 µg/mL (≈ 1.54 µM)
- MIC (MRSA isolates; [14]): 0.5 µg/mL (≈ 1.54 µM)
- MBC (MRSA isolates; [15]): 0.5 µg/mL (≈ 1.54 µM)
- MIC (MRSA isolates; [15]): 0.5 µg/mL (≈ 1.54 µM)
- MBC (MRSA isolates; [16]): 0.5 µg/mL (≈ 1.54 µM)
- MIC (MRSA isolates; [16]): 0.5 µg/mL (≈ 1.54 µM)
- MBC (MRSA isolates; Staphylococcus aureus, MRSA, pH 5.5, read-out: Average MBC, average of six MRSA isolates, pH 5.5): 0.5 µg/mL (≈ 1.54 µM)
- MIC (MRSA isolates; Staphylococcus aureus, MRSA, pH 5.5, read-out: Average MIC, average of six MRSA isolates, pH 5.5): 0.5 µg/mL (≈ 1.54 µM)
- MBC (MRSA isolates; [17]): 6 µg/mL (≈ 18.5 µM)
- MIC (MRSA isolates; [17]): 1 µg/mL (≈ 3.09 µM)
- MBC (MRSA isolates; [18]): 2 µg/mL (≈ 6.17 µM)
- MIC (MRSA isolates; [18]): 2 µg/mL (≈ 6.17 µM)
- MBC (MRSA isolates; [19]): 4 µg/mL (≈ 12.3 µM)
- MIC (MRSA isolates; [19]): 1 µg/mL (≈ 3.09 µM)
- MBC (MRSA isolates; [20]): 4 µg/mL (≈ 12.3 µM)
- MIC (MRSA isolates; [20]): 1 µg/mL (≈ 3.09 µM)
- MBC (MRSA isolates; [21]): 4 µg/mL (≈ 12.3 µM)
- MIC (MRSA isolates; [21]): 1 µg/mL (≈ 3.09 µM)
- MBC (MRSA isolates; [22]): 4 µg/mL (≈ 12.3 µM)
- MIC (MRSA isolates; [22]): 1 µg/mL (≈ 3.09 µM)
- MBC (MRSA isolates; Staphylococcus aureus, MRSA, pH 6.5, read-out: Average MBC, average of six MRSA isolates, pH 6.5): 4 µg/mL (≈ 12.3 µM)
- MIC (MRSA isolates; Staphylococcus aureus, MRSA, pH 6.5, read-out: Average MIC, average of six MRSA isolates, pH 6.5): 1.2 µg/mL (≈ 3.7 µM)
- MBC (MRSA isolates; [23]): 4 µg/mL (≈ 12.3 µM)
- MIC (MRSA isolates; [23]): 2 µg/mL (≈ 6.17 µM)
- MBC (MRSA isolates; [24]): 6 µg/mL (≈ 18.5 µM)
- MIC (MRSA isolates; [24]): 2 µg/mL (≈ 6.17 µM)
- MBC (MRSA isolates; [25]): 8 µg/mL (≈ 24.7 µM)
- MIC (MRSA isolates; [25]): 2 µg/mL (≈ 6.17 µM)
- MBC (MRSA isolates; [26]): 8 µg/mL (≈ 24.7 µM)
- MIC (MRSA isolates; [26]): 2 µg/mL (≈ 6.17 µM)
- MBC (MRSA isolates; [27]): 4 µg/mL (≈ 12.3 µM)
- MIC (MRSA isolates; [27]): 2 µg/mL (≈ 6.17 µM)
- MBC (MRSA isolates; [28]): 4 µg/mL (≈ 12.3 µM)
- MIC (MRSA isolates; [28]): 2 µg/mL (≈ 6.17 µM)
- MBC (MRSA isolates; Staphylococcus aureus, MRSA, pH 7.4, read-out: Average MBC, average of six MRSA isolates, pH 7.4): 5.7 µg/mL (≈ 17.6 µM)
- MIC (MRSA isolates; Staphylococcus aureus, MRSA, pH 7.4, read-out: Average MIC, average of six MRSA isolates, pH 7.4): 2 µg/mL (≈ 6.17 µM)
- MBC (MRSA isolates; Staphylococcus aureus, MRSA, read-out: MBC90, 39 evaluated MRSA isolates, CLSI broth microdilution): 6 µg/mL (≈ 18.5 µM)
- change of MIC and MBC with the reduction in pH (MRSA isolates): decreased as much as fourfold
- MBC range [2, 29]: 6 to 12 µg/mL
- MIC range [2, 29]: 2 to 4 µg/mL
- MIC90 ([2]; Staphylococcus epidermidis): 4 µg/mL (≈ 12.3 µM)
- MBC ([2]; Staphylococcus epidermidis, read-out: MBC90): 12 µg/mL (≈ 37 µM)
- MBC (Enterococcus faecalis; [30]): 16 µg/mL (≈ 49.4 µM)
- MIC (Enterococcus faecalis; [30]): 8 µg/mL (≈ 24.7 µM)
- MBC (Enterococcus faecalis; [31]): 16 µg/mL (≈ 49.4 µM)
- MIC (Enterococcus faecalis; [31]): 8 µg/mL (≈ 24.7 µM)
- MIC (Streptococcus pyogenes; Streptococcus pyogenes (NR1571), read-out: MIC): 6 µg/mL (≈ 18.5 µM)
- MIC (Streptococcus pyogenes; [32]): 6 µg/mL (≈ 18.5 µM)
- MBC (Streptococcus pyogenes; Streptococcus pyogenes (NR1571)): 24 µg/mL (≈ 74.1 µM)
- MBC (Streptococcus pyogenes; [32]): 16 µg/mL (≈ 49.4 µM)
- MIC (Pseudomonas aeruginosa; Pseudomonas aeruginosa (PAM57-15)): > 32 µg/mL
- MIC (Pseudomonas aeruginosa; Pseudomonas aeruginosa (PAO1)): > 32 µg/mL
- bacterial killing after 24 hours ([3]; stationary-phase SA LL 06, C59 at 1× and 2× MIC): complete bacterial eradication
- bacterial killing after 24 hours ([3]; stationary-phase TCH 1516): did not result in complete bacterial killing
- concentration that completely eradicated biofilms [4]: 16 µg/mL
- growth on drug-loaded plates (MRSA isolate TCH 1516 [5]): No growth
- increase in MIC (MRSA isolate TCH 1516 [6]): no change in MIC
- LD50 [7]: 56.0 µg/mL
- LD50 [8]: 40.2 µg/mL
- concentrations at which erythrocytes were not lysed ([9]; 1% sheep blood, 1-hour incubation): up to 24 µg/mL
- LD50 relative to MIC90 ([9]; higher than MIC90, stated in the hemolysis discussion, cell type not named): 24 fold

Structure (SMILES): CC(=O)Oc1c(Cl)cc(Cl)cc1-c1cc(Cl)cc(Cl)c1OC(C)=O [C59Ac]
- acid dissociation constant (Ka) [1]: 2.45 × 10^−12
- pH of solution [1]: 6.61
- MBC (MRSA isolates; MRSA 0606, pH 7.4): 8 µg/mL (≈ 19.6 µM)
- MIC (MRSA isolates; MRSA 0606, pH 7.4): 4 µg/mL (≈ 9.8 µM)
- MBC (MRSA isolates; MRSA 0608, pH 7.4): 12 µg/mL (≈ 29.4 µM)
- MIC (MRSA isolates; MRSA 0608, pH 7.4): 4 µg/mL (≈ 9.8 µM)
- MBC (MRSA isolates; MRSA 0634, pH 7.4): 4 µg/mL (≈ 9.8 µM)
- MIC (MRSA isolates; MRSA 0634, pH 7.4): 4 µg/mL (≈ 9.8 µM)
- MBC (MRSA isolates; MRSA 0641, pH 7.4): 12 µg/mL (≈ 29.4 µM)
- MIC (MRSA isolates; MRSA 0641, pH 7.4): 4 µg/mL (≈ 9.8 µM)
- MBC (MRSA isolates; MRSA 0646, pH 7.4): 8 µg/mL (≈ 19.6 µM)
- MIC (MRSA isolates; MRSA 0646, pH 7.4): 4 µg/mL (≈ 9.8 µM)
- MBC (MRSA isolates; TCH 1516, pH 7.4): 4 µg/mL (≈ 9.8 µM)
- MIC (MRSA isolates; TCH 1516, pH 7.4): 4 µg/mL (≈ 9.8 µM)
- change of MIC and MBC with the reduction in pH (MRSA isolates): remained unchanged
- aqueous solubility [10]: moderate aqueous solubility
